From patent publication US12337037B2, “Taxol conjugate compounds, pharmaceutical compositions comprising the same, and methods for their use” (N1 Life, Inc, priority 2021, dated 2025)
Entries after “also recorded” stand apart in the source; their conditions may differ. Where two headings read alike, the source gives them in different places.

Tests used:
[1] = tested on: DLD-1 colorectal adenocarcinoma cell line; assay: cells
Method: (§1) Cytotoxicity Assay—CCK8 Cancer Cells
(§2) The CCK-8 assay was applied to study the cytotoxicity of the peptide drug conjugates and their inhibition of proliferation of cancer cells. First, 2˜10×10^3 cells (depending on the rate of growth of different cell lines) with 100 μL, DMEM media were seeded in normal culture medium into each well of a 96-well plate. The cells were then cultured overnight at 37° C. with 4˜5% CO2. Different doses (4000, 2000, 1000, 500 nM for Hep3B, Hep G2 and MCF7/MBA-MD-231; 1000, 333.3, 100.0, 33.33, 3.333, 1.000, 0.333 nM for MCF7/ADR, 22Rv1, CNE1, HCT116, DLD-1) of Taxol and peptide drugs were added. After 48˜72 hour incubation, CCK-8 solution was added to each well. The cells were then incubated at 37° C. for 4 hours. The optical density was measured at 450/650 nm using a multiscan spectrometer (PerkinElmer's EnSpire Multilabel Plate Reader). The optical density is linearly proportional to the number of living cells in the sample:
(§3) The plate layout for MCF7/ADR, 22Rv1, CNE1, HCT116, DLD-1 cell lines is shown below.

[2] = tested on: HCT116 human colorectal carcinoma cell; assay: cells
Method: as §1, §2, §3

[3] = tested on: CNE1 nasopharyngeal carcinoma cell line; assay: cells; conditions: read-out: IC50 nM
Method: as §1, §2, §3

[4] = tested on: 22Rv1 human prostate carcinoma epithelial cell line; assay: cells
Method: as §1, §2, §3

[5] = tested on: MCF7/ADR multidrug-resistant breast cancer cell; assay: cells; conditions: read-out: IC50 nM
Method: as §1, §2, §3

[6] = tested on: liver cancer Hep 3B cells; assay: CCK-8 cytotoxicity / anti-proliferation assay, Hep 3B; format: cell-based; conditions: for Anti-proliferation %: 4 μM
Method: as §1
as §2, with “sample: […]” for “sample:”

[7] = tested on: Human ovarian cancer (SKOV-3-GFP) cells; assay: Efficacy in metastatic ovarian cancer model (peritoneal disseminated metastasis); format: in vivo, Female athymic nude mice; conditions: for acute toxic effect / animal death: ovarian cancer model; for mean tumor fluorescence area as % of the Vehicle (PBS) group / Average tumor area on day 0 (MEAN ± SD) / Average tumor area on day 21 (MEAN ± SD) / Mean tumor mass (g) (MEAN ± SD) / Average tumor inhibitory rate (%) (MEAN ± SD): Taxol 10 mg/kg; for mean tumor fluorescence area as % of the Vehicle (PBS) group: Compound 3 / Compound 5 9.6 mg/kg IP Q5D; for Average tumor area on day 0 (MEAN ± SD): baseline fluorescence area; for Average tumor area on day 21 (MEAN ± SD): fluorescence area; for Mean tumor mass (g) (MEAN ± SD): conjugate 9.6 mg/kg IP Q5D; for Average tumor inhibitory rate (%) (MEAN ± SD): from final tumor weights
Method: The tumor samples were then stored in formalin solution.
Method: The method was the same as described for Biological Example 4.
Endpoint tumor load of each group: At Day 21 after administration, the tumor load of each group was calculated by dissecting and weighing the tumor in the abdominal cavity. The vehicle was the control.
Tumor inhibitory rate (IR): Tumor IR was calculated based on the final average tumor weights according to the formula: IR (%)=(1-treatment(t)/control(c))×100

SKOV-3-GFP cells = assay: Elimination of ascites; format: in vivo, mice; conditions: SKOV-3-GFP cells injected into the peritoneal cavity; Compound 3 9.6 mg/kg, Taxol 10 mg/kg
Method: Following the procedure described in Example 5, mice injected with SKOV-3-GFP cells (a cell suspension of 6×10^6/120 μL/mouse or 8×10^6/120 μL/mouse injected into the peritoneal cavity) were also studied for the formation of ascites. Mice were administered vehicle (PBS), Taxol (10 mg/kg), or Compound 3 (9.6 mg/kg).
FIG. 16 and FIG. 18 are images of mice administered vehicle following an injection of SKOV-3-GFP cells (6×10^6/120 μL/mouse or 8×10^6/120 μL/mouse, respectively). […] FIG. 17A and FIG. 17B are images of two mice administered Compound 3 (9.6 mg/kg, equimolar to 2.5 mg/kg Taxol) following an injection of SKOV GFP cells (6×10^6/120 μL/mouse).

[8] = read-out: IC50 nM, HCT116 cells
[9] = Table 8A (Compound 3 set), Compd 3 9.6 mg/kg IP Q5D
[10] = Table 9B (titled Compound 5 set), Day 21
[11] = Table 10A (Compound 3 set), Day 21, Compd 3 9.6 mg/kg IP Q5D
[12] = Table 8B (Compound 5 set), Compd 5 9.6 mg/kg IP Q5D
[13] = Table 9A (titled Compound 3 set), Day 21
[14] = Table 10B (Compound 5 set), Day 21, Compd 5 9.6 mg/kg IP Q5D

Row | SMILES | IC50 ([1]; read-out: IC50 nM, DLD-1 cells) [nM] | IC50 [2, 8] [nM] | IC50 ([3]; CNE1 cells) [nM] | IC50 ([4]; read-out: IC50 nM, 22Rv1 cells) [nM] | IC50 ([5]; MCF7/ADR cells) [nM] | Anti-proliferation % [6] [%] | acute toxic effect / animal death ([7]; 9.6 mg/kg IP Q5D) | mean tumor fluorescence area as % of the Vehicle (PBS) group ([7]; Day 21) | Average tumor area on day 0 (MEAN ± SD) [7, 9] | Average tumor area on day 21 (MEAN ± SD) [7, 9] | Mean tumor mass (g) (MEAN ± SD) [7, 10] | Average tumor inhibitory rate (%) (MEAN ± SD) [7, 11] | formation of ascites (SKOV-3-GFP cells) | Average tumor area on day 0 (MEAN ± SD) [7, 12] | Average tumor area on day 21 (MEAN ± SD) [7, 12] | Mean tumor mass (g) (MEAN ± SD) [7, 13] | Average tumor inhibitory rate (%) (MEAN ± SD) [7, 14] | other results
1 | CC(=O)N[C@@H](CSSCCCC(=O)OC(C(=O)O[C@H]1C[C@@]2(O)[C@@H](OC(=O)c3ccccc3)[C@@H]3[C@]4(OC(C)=O)CO[C@@H]4C[C@H](O)[C@@]3(C)C(=O)[C@H](OC(C)=O)C(=C1C)C2(C)C)[C@@H](NC(=O)c1ccccc1)c1ccccc1)C(=O)N[C@H](CCCNC(=N)N)C(=O)N[C@H](CCCNC(=N)N)C(=O)N[C@H](CCCNC(=N)N)C(=O)N[C@H](CCCNC(=N)N)C(=O)N[C@H](CCCNC(=N)N)C(=O)N[C@H](CCCNC(=N)N)C(=O)N[C@H](CCCNC(=N)N)C(=O)N[C@H](CCCNC(=N)N)C(N)=O (stereo partly drawn) [Compound 3, Ac-L-Cysteine (paclitaxel-4-mercaptobutanoate)-D-Arginine8-NH2] | 62 | 21.5 | 15.9 | 21.6 | 438 | 36.0 | no obvious acute toxic effect | about 20% | 18.6 ± 5.3 | 30.9 ± 24.2 | 0.2555 ± 0.1388 | 90±8 | No bloody ascites were observed | – | – | – | – | cancer cell inhibition compared to Compound 5 (FIG. 2A) ([6]; all tested concentrations (500-4000 nM)): substantially superior to cancer cell inhibition compared to Compound 5 at all tested concentrations; tumor inhibition effect, better than Compound 5 ([7]; 9.6 mg/kg): at least 10%; average tumor fluorescence area as % of the Taxol (10 mg/kg) group ([7]; Day 21, 9.6 mg/kg IP Q5D): about 100%; average tumor weight as % of the Vehicle group ([7]; Day 21, 9.6 mg/kg IP Q5D): about 10%; Average tumor inhibitory rate (%) (MEAN ± SD) ([7]; Table 10A (Compound 3 set), Day 21, Compd 3 9.6 mg/kg IP Q5D, listed as Compd 3): 90 ± 8%
2 | CC(=O)N[C@H](CSSCCCC(=O)O[C@@H](C(=O)O[C@H]1C[C@@]2(O)[C@@H](OC(=O)c3ccccc3)[C@@H]3[C@]4(OC(C)=O)CO[C@@H]4C[C@H](O)[C@@]3(C)C(=O)[C@H](OC(C)=O)C(=C1C)C2(C)C)[C@@H](NC(=O)c1ccccc1)c1ccccc1)C(=O)N[C@H](CCCNC(=N)N)C(=O)N[C@H](CCCNC(=N)N)C(=O)N[C@H](CCCNC(=N)N)C(=O)N[C@H](CCCNC(=N)N)C(=O)N[C@H](CCCNC(=N)N)C(=O)N[C@H](CCCNC(=N)N)C(=O)N[C@H](CCCNC(=N)N)C(=O)N[C@H](CCCNC(=N)N)C(N)=O [Compound 5, Ac-D-Cysteine (paclitaxel-4-mercaptobutanoate)-D-Arginine8-NH2] | 110 | 23.5 | 19.3 | 29.3 | > 1000 | 23.2 | caused animal death; also recorded: one animal died at Day 18 | 10% | – | – | – | – | – | 24.9 ± 6.6 | 28.7 ± 19.8 | 0.178 ± 0.143 | 79±11 | tumor inhibitory effect, less effective than Taxol ([7]; 9.6 mg/kg vs Taxol 10 mg/kg): about 10%; Average tumor inhibitory rate (%) (MEAN ± SD) ([7]; Table 10B (Compound 5 set), Day 21, Compd 5 9.6 mg/kg IP Q5D, listed as Compd 5): 79 ± 11%
3 | CC(=O)O[C@H]1C(=O)[C@@]2(C)[C@H]([C@H](OC(=O)c3ccccc3)[C@]3(O)C[C@H](OC(=O)[C@H](O)[C@@H](NC(=O)c4ccccc4)c4ccccc4)C(C)=C1C3(C)C)[C@]1(OC(C)=O)CO[C@@H]1C[C@@H]2O [Taxol, paclitaxel] | – | – | – | – | – | 11.5 | – | 8-16% | 18.4 ± 3.3 | 24.8 ± 27.1 | 0.1970 ± 0.1248 | 90 ± 8 | formation of malignant as cites | 22.8 ± 4.1 | 22.7 ± 15.5 | 0.174 ± 0.141 | 84 ± 10 | IC50 ([1]; Homo sapiens, DLD-1, read-out: IC50 nM): 9.98 nM; IC50 ([2]; Homo sapiens, HCT-116, read-out: IC50 nM): 2.79 nM; IC50 [3]: 1.12 nM; IC50 ([4]; Homo sapiens, 22Rv1, read-out: IC50 nM): 4.95 nM; IC50 ([5]; Homo sapiens, NCI/ADR-RES): > 1000 nM
